Source: patent US5420339A, “Alpha-aryl or heteroaryl-substituted amide ester ACAT inhibitors” (Warner-Lambert Company, priority 1993, dated 1995)

How the values were obtained:
[1] = APCC in vivo screen: blood cholesterol in rats on PCC diet with cholic acid; set-up: species or system male Sprague-Dawley rats; details: single dosing at 4 PM, PCC diet overnight with 1% or 0.5% cholic acid, sacrificed 8 AM
Method: The compounds were also evaluated in an in vivo screen designated APCC whereby male Sprague-Dawley rats (200 to 225 g) were randomly divided into treatment groups and dosed at 4 PM with either vehicle (CMC/Tween) or suspensions of compounds in vehicle. The normal chow diet was then replaced with the PCC diet with either 1% or 0.5% cholic acid. The rats consumed this diet ad libitum during the night and were sacrificed at 8 AM to obtain blood samples for cholesterol analysis using standard procedures. Statistical differences between mean cholesterol values for the same vehicle were determined using analysis of variance followed by Fisher-s least significant test.
The data appear in Table II where they are expressed as % change.

[2] = in vivo adrenal toxicity screen in guinea pigs (Dominick et al.); set-up: species or system male guinea pigs of the Hartley strain; details: 100 mg/kg daily gavage, 2 weeks; for toxicity class to the adrenal gland: oleic acid vehicle
Method: Male guinea pigs of the Hartley strain (450-500 g) were obtained from Charles River and randomly divided into treatment groups. They were fed standard guinea pig chow ad libitum and dosed daily (AM) by gavage (100 mg/kg). The test compounds were dissolved or suspended in an oleic acid vehicle to facilitate absorption. After 2 weeks the animals were sacrificed by CO2 asphyxiation in the nonfasted state 16 hours after the last dose. Adrenal glands were weighed, fixed in 10% formalin, processed by routine paraffin techniques, sectioned, and then stained with hematoxylin and eosin for light microscopy. Toxicity was defined by the incidence, severity, and complexity of adrenal histopathologic alterations in the zona fasciculata (e.g., adrenal cortical atrophy, increased coarse vacuolation, single-cell necrosis, inflammatory cell infiltrates, mineralization/ectopic bone formation, and increased cytoplasmic eosinophilia).

SMILES	APCC % Change TC [1]	also measured
CCCOC(=O)C(C(=O)Nc1c(C(C)C)cccc1C(C)C)c1ccccc1 (racemic) [Example 9, (±)-Benzeneacetic acid, α-[[[2,6-bis(1-methylethyl)phenyl]amino]carbonyl]-, propyl ester]	-20%	–
CCCCCCCCOC(=O)C(C(=O)Nc1c(C(C)C)cccc1C(C)C)c1ccccc1 (racemic) [Example 10, (±)-Benzeneacetic acid, α-[[[2,6-bis(1-methylethyl)phenyl]amino]carbonyl]-, octyl ester]	-56%	–
CCCCCCCCCCCCC(C)OC(=O)C(C(=O)Nc1c(OC)cc(OC)cc1OC)c1ccccc1 (racemic) [Example 17, (±)-Benzeneacetic acid, α-[[(2,4,6-trimethoxyphenyl)amino]carbonyl]-, 1-methyltridecyl ester]	-59%	–
CCCCCCCCCCCCCCOC(=O)C(C(=O)Nc1c(C(C)C)cccc1C(C)C)c1ccccc1 (racemic) [Example 5, (±)-Benzeneacetic acid, α-[[[2,6-bis(1-methylethyl)phenyl]amino]carbonyl]-, tetradecyl ester]	-49%	–
CCCCCCCCCCCCCCCCCCOC(=O)C(C(=O)Nc1c(C(C)C)cccc1C(C)C)c1ccccc1 (racemic) [Example 14, (±)-Benzeneacetic acid, α-[[[2,6-bis(1-methylethyl)phenyl]amino]carbonyl]-, octadecyl ester]	-25%	–
CCCCCCCCCCCCC(C)OC(=O)C(C(=O)Nc1c(C(C)C)cccc1C(C)C)c1ccccc1 (racemic) [Example 1, (±)-Benzeneacetic acid, α-[[[2,6-bis(1-methylethyl)phenyl]amino]carbonyl]-, 1-methyltridecylester]	-61%	increased coarse vacuoles (incidence) [2]: one of six; toxicity class to the adrenal gland [2]: nontoxic to the adrenal gland
CCCCCC(C)OC(=O)C(C(=O)Nc1c(C(C)C)cccc1C(C)C)c1ccccc1 (racemic) [Example 7, (±)-Benzeneacetic acid, α-[[[2,6-bis(1-methylethyl)phenyl]amino]carbonyl]-, 1-methylhexyl ester]	-67%	–
CCCCCCCOC(=O)C(C(=O)Nc1c(C(C)C)cccc1C(C)C)c1ccccc1 (racemic) [Example 8, (±)-Benzeneacetic acid, α-[[[2,6-bis(1-methylethyl)phenyl]amino]carbonyl]-, heptyl ester]	-71%	–
CCCCCCCCCCCCOC(=O)C(C(=O)Nc1c(C(C)C)cccc1C(C)C)c1ccccn1 (racemic) [Example 19, (±)-2-pyridineacetic acid, α-[[[2,6-bis(1-methylethyl)phenyl]amino]carbonyl]-, dodecyl ester]	-43%	–
CCCCCCCCCCCCOC(=O)C(C(=O)Nc1c(OC)cc(OC)cc1OC)c1ccccc1 (racemic) [Example 18, (±) -Benzeneacetic acid, α-[[(2,4,6-trimethoxyphenyl)amino]carbonyl]-, dodecyl ester]	-51%	–
CCCCCCCCCCCCCCC(C)OC(=O)C(C(=O)Nc1c(C(C)C)cccc1C(C)C)c1ccccc1 (racemic) [Example 16, (±)-Benzeneacetic acid, α-[[[2,6-bis(1-methylethyl)phenyl]amino]carbonyl]-, 1-methylpentadecyl ester]	-37%	–
CCCCC(C)(C)OC(=O)C(C(=O)Nc1c(C(C)C)cccc1C(C)C)c1ccccc1 (racemic) [Example 15, (±)-Benzeneacetic acid, α-[[[2,6-bis(1-methylethyl)phenyl]amino]carbonyl]-, 1,1-dimethylpentyl ester]	-72%	–
CCCCCCCCCCCCOC(=O)C(C(=O)Nc1c(C(C)C)cccc1C(C)C)c1ccccc1 (racemic) [Example 3, (±)-Benzeneacetic acid, α-[[[2,6-bis(1-methylethyl)phenyl]amino]carbonyl]-, dodecyl ester]	-63%	increased coarse vacuoles (incidence) [2]: five of six; toxicity class to the adrenal gland [2]: nontoxic to the adrenal gland
CCCCCCCCCOC(=O)C(C(=O)Nc1c(C(C)C)cccc1C(C)C)c1ccccc1 (racemic) [Example 11, (±)-Benzeneacetic acid, α-[[[2,6-bis(1-methylethyl)phenyl]amino]carbonyl]-, nonyl ester]	-67%	–
CCCCCCCCCCCCCCCCOC(=O)C(C(=O)Nc1c(C(C)C)cccc1C(C)C)c1ccccc1 (racemic) [Example 13, (±)-Benzeneacetic acid, α-[[[2,6-bis(1-methylethyl)phenyl]amino]carbonyl]-, hexadecyl ester]	-26%	–
CCCCCCCCCCC(C)OC(=O)C(C(=O)Nc1c(C(C)C)cccc1C(C)C)c1ccccc1 (racemic) [Example 4, (±)-Benzeneacetic acid, α-[[[2,6-bis(1-methylethyl)phenyl]amino]carbonyl]-, 1-methylundecyl ester]	-37%	–
CCCCCCCCCCCCC(C)(C)OC(=O)C(C(=O)Nc1c(C(C)C)cccc1C(C)C)c1ccccc1 (racemic) [Example 12, (±)-Benzeneacetic acid, α-[[[2,6-bis(1-methylethyl)phenyl]amino]carbonyl]-, 1,1-dimethyltridecyl ester]	-26%	–
CCCCCCCCCCCCC(C)OC(=O)CC(=O)Nc1c(C(C)C)cccc1C(C)C (racemic) [(±)3-[[2,6-bis(1-methylethyl)phenyl]amino]-3-oxo-propanoic acid, 1-methyltridecyl ester]	–	atrophy of the zona reticularis (incidence) [2]: two of six; cytotoxic zonal atrophy of the zona fasciculata (incidence) [2]: six of six; increased coarse vacuoles (incidence) [2]: two of six; inflammatory cell infiltrates (incidence) [2]: four of six; necrosis of the adrenal cortex (incidence) [2]: four of six; toxicity class to the adrenal gland [2]: highly toxic to the adrenal gland
CCCCCCCCCCOC(=O)C(C(=O)Nc1c(C(C)C)cccc1C(C)C)c1ccccc1 (racemic) [Example 6, (±)-Benzeneacetic acid, α-[[[2,6-bis(1-methylethyl)phenyl]amino]carbonyl]-, decyl ester]	-58%	–
